PubChem BioAssay AID2060903 (Molecular Pharmacology Branch, DTP, NCI, 2025)

Test system: 377384-186-R-J1-PDC complex spheroid viability
Experiment: Anticancer human tumor 377384-186-R-J1-PDC patient-derived pancreatic carcinoma cell line growth inhibition [RAS]
Details: for IC50: curve of first compound; for viability, T/C: stronger effect = lower value
Excerpt: RAS pathway inhibitors in Combinations in Complex Spheroids
A high-throughput screen of multi-cell type tumor spheroids was designed to identify active combinations of RAS pathway inhibitors and targeted small molecules. Complex spheroids include a stromal component modeled by human endothelial cells (HUVEC) and fibroblasts modeled by human mesenchymal stem cells (MSCs). The concentration ranges selected for each drug and investigational agent were based upon clinically achievable concentrations if the clinical Cmax of the agent was known.
Compounds. The drugs and investigational agents: abemaciclib (NSC768073), cobimetinib (NSC768068), divarasib (GDC6063, NSC841802), docetaxel (NSC628503), GDC-1971 (RLY-1971, NSC841576), gemcitabine (NSC613327), inavolisib (NSC800729), ipatasertib (NSC767898), KB-0742 (NSC834161), MRTX-1133 (NSC836407), osimertinib (NSC779217), RMC-4630 (NSC839698), RMC-6236 (NSC851965), RMC-6291 (NSC852671), Ro-3306 (NSC812927), sapanisertib (NSC764658), SN-38 (NSC673596), staurosporine (NSC755774), SY5609 (NSC837396), and tovorafenib (DAY101, NSC766906), were obtained from the National Cancer Institute (NCI) Developmental Therapeutics Program Chemical Repository. The FDA-approved anticancer drug set is available from the NCI Developmental Therapeutics Program. […] The stock solutions were prepared in dimethyl sulfoxide (DMSO, Sigma-Aldrich, St. Louis, MO, cat. D2650) at 800-fold the tested concentration and stored at -70 degrees C prior to their use. All drugs and investigational agents were tested over a range starting from a high concentration at or near the clinical Cmax and decreasing in half-log increments. If the clinical Cmax for an agent had not been determined, the highest concentration tested was 10 microM.
Cell Culture. All cells were maintained in an incubator at 37 degrees C and 5% CO2 with 95% humidity. The PDC lines were cultured according to standard operating procedures established by the NCI PDMR. All PDCs were thawed and cultured in Matrigel-coated flasks prepared with a working solution of 1X Ham's F-12 nutrient mix, without supplementation (Invitrogen, Waltham, MA, cat. 11765054), 100 U/mL penicillin-streptomycin (Invitrogen, cat. 15140122), and 2.5% Matrigel (Corning Inc., Corning, NY, cat. 354248) for the first three passages. The 362531-283-R-J2-PDC and 782815-120-R-J1-PDC lines were cultured in 6C/Colon 1B media, which includes advanced DMEM/F-12 (Thermo Fisher Scientific, cat. 12634028), 10 mM HEPES (Thermo Fisher Scientific, cat. 15630080), 1X GlutaMAX supplement (Thermo Fisher Scientific, cat. 35050061), 0.1 mg/mL primocin (InvivoGen, San Diego, CA, cat. ant-pm-2), 10% defined fetal bovine serum, heat inactivated (HyClone Laboratories Inc., Logan, UT, cat. SH30070.03HI), 50% L-WRN conditioned media (ATCC, cat. CRL-3276), 1.25 mM N-Acetyl-L-cysteine (Sigma-Aldrich, cat. A9165), 10 mM nicotinamide (Sigma-Aldrich, cat. N0636), 1X B-27 supplement (Thermo Fisher Scientific, cat. 17504044), 1X N-2 supplement (Thermo Fisher Scientific, cat. 17502048), 50 ng/mL human EGF (Thermo Fisher Scientific, cat. PHG0311), and 10 microM Y-27632 dihydrochloride (Tocris Bioscience, cat. 1254). The K12877-001-R-J1-PDC line was cultured in 6I media, which includes all 6C/Colon 1B media plus 10 ng/mL human FGF-10 (PeproTech, cat. 100-26), 1 ng/mL human FGF-2 (PeproTech, cat. 100-18B), 1 µM prostaglandin E2 (Tocris Bioscience, cat. 2296), […] hydrocortisone (Sigma-Aldrich, cat. H4001), and […] bovine insulin (Sigma-Aldrich, cat. I6634). The K86415-001-R-J1-PDC line was cultured in 6D media, which includes all 6C/Colon 1B media components minus the L-WRN conditioned media. The 485176-168-R4-J1-PDC was cultured in PANC media, which includes all 6C/Colon 1B media plus 100 ng/mL human FGF-10 (PeproTech, cat. 100-26), 500 nM SB-431542 (Selleckchem, cat. S1067), and 10 nM gastrin (Tocris Bioscience, cat. 3006). […]
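Also: spheroids exposed to compounds for seven days before readout.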

- IC50 (second compound 0.0316 µM): < 3.16 nM
- IC50 (second compound 0.1 µM): < 3.16 nM
- IC50 (second compound 0.316 µM): < 3.16 nM
- IC50 (second compound 1 µM): < 3.16 nM
- IC50 (second compound 3.16 µM): < 3.16 nM
- IC50 (second compound 10 µM): < 3.16 nM
Compound: O=C(c1ccc(F)c(F)c1Nc1ccc(I)cc1F)N1CC(O)([C@@H]2CCCCN2)C1 + C#Cc1c(F)ccc2cc(O)cc(-c3ncc4c(N5CC6CCC(C5)N6)nc(OCC56CCCN5CC(F)C6)nc4c3F)c12
- viability, T/C (second compound 0.0316 µM, first compound 0.00316 µM): 19.3%
- viability, T/C (second compound 0.0316 µM, first compound 0.01 µM): 12%
- viability, T/C (second compound 0.0316 µM, first compound 0.0316 µM): 5.6%
- viability, T/C (second compound 0.0316 µM, first compound 0.1 µM): 2.35%
- viability, T/C (second compound 0.0316 µM, first compound 0.316 µM): 0.7%
- viability, T/C (second compound 0.0316 µM, first compound 1 µM): 0.29%
- viability, T/C (second compound 0.1 µM, first compound 0.00316 µM): 6.37%
- viability, T/C (second compound 0.1 µM, first compound 0.01 µM): 4.57%
- viability, T/C (second compound 0.1 µM, first compound 0.0316 µM): 2.3%
- viability, T/C (second compound 0.1 µM, first compound 0.1 µM): 1.43%
- viability, T/C (second compound 0.1 µM, first compound 0.316 µM): 0.58%
- viability, T/C (second compound 0.1 µM, first compound 1 µM): 0.35%
- viability, T/C (second compound 0.316 µM, first compound 0.00316 µM): 4.21%
- viability, T/C (second compound 0.316 µM, first compound 0.01 µM): 2.12%
- viability, T/C (second compound 0.316 µM, first compound 0.0316 µM): 1.39%
- viability, T/C (second compound 0.316 µM, first compound 0.1 µM): 0.91%
- viability, T/C (second compound 0.316 µM, first compound 0.316 µM): 0.54%
- viability, T/C (second compound 0.316 µM, first compound 1 µM): 0.22%
- viability, T/C (second compound 1 µM, first compound 0.00316 µM): 1.85%
- viability, T/C (second compound 1 µM, first compound 0.01 µM): 1.57%
- viability, T/C (second compound 1 µM, first compound 0.0316 µM): 1.12%
- viability, T/C (second compound 1 µM, first compound 0.1 µM): 1.04%
- viability, T/C (second compound 1 µM, first compound 0.316 µM): 0.42%
- viability, T/C (second compound 1 µM, first compound 1 µM): 0.15%
- viability, T/C (second compound 3.16 µM, first compound 0.00316 µM): 1.79%
- viability, T/C (second compound 3.16 µM, first compound 0.01 µM): 1.3%
- viability, T/C (second compound 3.16 µM, first compound 0.0316 µM): 1.31%
- viability, T/C (second compound 3.16 µM, first compound 0.1 µM): 0.67%
- viability, T/C (second compound 3.16 µM, first compound 0.316 µM): 0.2%
- viability, T/C (second compound 3.16 µM, first compound 1 µM): 0.21%
- viability, T/C (second compound 10 µM, first compound 0.00316 µM): 1.29%
- viability, T/C (second compound 10 µM, first compound 0.01 µM): 0.68%
- viability, T/C (second compound 10 µM, first compound 0.0316 µM): 0.68%
- viability, T/C (second compound 10 µM, first compound 0.1 µM): 0.65%
- viability, T/C (second compound 10 µM, first compound 0.316 µM): 0.38%
- viability, T/C (second compound 10 µM, first compound 1 µM): 0.17%
